Measurements taken from US20090023773A1, “COMPOSITIONS AND METHODS FOR MODULATING GATED ION CHANNELS” (PainCeptor Pharma Corporation, priority 2007, published 2009).

System: chemically-induced spontaneous pain evoked by intraplantar injection of formalin
Test: Formalin test, model of acute tonic pain (Example 7)
Assay type: in vivo
Conditions: rat, 1 min prior to formalin
Protocol: Male Sprague-Dawley rats are housed together in groups of three animals under standard conditions with unrestricted access to food and water. All experiments are conducted according to the ethical guidelines for investigations of experimental pain in conscious animals (Zimmerman, 1983).
Assessment of formalin-induced flinching behavior in normal, uninjured rats (body weight 200-300 g) is made after formalin (2.5% in saline, 50-100 μl, s.c.) is injected into the plantar surface of the hindpaw using a 27 G needle. Rats are pretreated with test compounds either administered intravenously (IV), by subcutaneous injection (SC) or by orally (PO).
Nociceptive behavior is determined manually every 5 min by measuring the amount of time spent in each of four behavioral categories: 0, treatment of the injected hindpaw is indistinguishable from that of the contralateral paw; 1, the injected paw has little or no weight placed on it; 2, the injected paw is elevated and is not in contact with any surface; 3, the injected paw is licked, bitten, or shaken. A weighted nociceptive score, ranging from 0 to 3 is calculated by multiplying the time spent in each category by the category weight, summing these products, and dividing by the total time for each 5 min block of time. (Coderre et al., Pain 1993; 54: 43). On the basis of the resulting response patterns, […] of nociceptive behavior are identified and scored: first phase (P1; 0-5 min), interphase (Int; 6-15 min), second phase (P2; […]), phase 2A (P2A; 16-40 min) and phase 2B (P2B; 41-60 min).
Statistical analysis is performed using the Prism™ 4.01 software package (GraphPad, San Diego, Calif., USA). The difference in response levels between treatment groups and control vehicle group is analyzed using an ANOVA followed by Bonferroni's method for post-hoc pair-wise comparisons. A p value <0.05 is considered to be significant.

For `Cc1cc(OC2CCN(Cc3ccccc3)CC2)c2cc(O)ccc2n1` [Compound 13, 4-(1-benzylpiperidin-4-yloxy)-2-methylquinolin-6-ol], the “pain intensity as evaluated by the licking behavior” value (SC, 2.5, 7.5, 25 and 75 mg/kg, FIG. 5A) was “dose-dependent reduction” and the ED50 (SC, FIG. 5B, read-out: ED50 (number of licking and biting episodes in phase IIa of the formalin test)) was roughly 6 mg/kg.
